These results are taken from paper PMC5991599, “Anti‐tumor efficacy of a novel CLK inhibitor via targeting RNA splicing and MYC‐dependent vulnerability” (EMBO Molecular Medicine, 2018).

The structures appear in SMILES notation.

Holding throughout (test): Panel of growth inhibition assays (OncoPanel 240)
What all share (type): cell-based

Assay [1] relates to 240 cancer cell lines. Particulars: hematological and solid cancer cell lines; 72 h; read-out: IC50 values, anti-proliferative activity. The method, then: (§1) The KINOMEScan‐based kinase selectivity assay was performed at the DiscoverX Corporation (Fremont, CA, USA). The panel of growth inhibition assay and subsequent bioinformatics analysis (Fig EV1) were performed at Eurofins Inc. (St. Charles, MO, USA), using OncoPanel 240 or 60. Details of the procedures of cell proliferation assay, caspase‐3/7 activity assay, immunoblotting, and immunohistochemistry are described in Appendix Supplementary Methods.
(§2) Panel of growth inhibition assay and subsequence bioinformatics analysis (at […]
(§3) A growth inhibition assay panel and subsequent bioinformatics analysis were performed at Eurofins Inc. (MO, U.S.A.) by utilizing Oncopanel240 or 60.
(§4) According to the study reports from Eurofins Inc., cells were seeded into 384 well plates at a single cell density in standardized media. After 24 hours, the test compounds were added and the plate was incubated continuously for 72 hours. Cells were then fixed and stained to visualize nuclei. The number of nuclei was counted and normalized.
(§5) Cellular response parameters were calculated using nonlinear regression to a sigmoidal single-site dose response model and the IC50 value of each cell line was calculated.
(§6) Genomic features were binned into six distinct categories, each of which was considered to be a “biomarker-positive” grouping: Mutated (non-synonymous, coding, and non-coding mutations), Amplified, Deleted, Overexpressed, Mutated or amplified (gain-of-function), and Mutated or deleted (loss-of-function). Two orthogonal significance tests were performed on each genomic feature as follows.
(§7) Student’s t-test: For each genomic feature within each of the six above categories, IC50 cell count values for biomarker-positive and biomarker-negative groups were […]

Assay [2] deals with 786-O. As to conditions: Homo sapiens, 786-0; 72 h; kidney cancer; read-out: IC50 (nmol/L) Oncopanel. The method, then:
as §1, §2, §3, §4, §5, §6, §7

Assay [3] concerns CCRF-CEM. Particulars: Homo sapiens, 72 h, leukemia, read-out: IC50 (nmol/L) Cell count. The method, then: as §1, §2, §3, §4, §5, §6, §7
The test system of assay [4] is CMLT1. As to conditions: CML-T1; 72 h; leukemia; read-out: IC50 (Oncopanel, cell count). The method, then:
as §1, §2, §3, §4, §5, §6, §7

Assay [5] relates to COLO320HSR. Particulars: Homo sapiens, COLO-320-HSR; 72 h; colorectal cancer; read-out: IC50 (nmol/L) Oncopanel. As for the experimental part: as §1, §2, §3, §4, §5, §6, §7
Assay [6] has as its system DAUDI. As to conditions: Homo sapiens, 72 h, lymphoma, read-out: IC50 (Oncopanel, cell count). As for the experimental part: as §1, §2, §3, §4, §5, §6, §7
Assay [7] deals with EM2. Particulars: Homo sapiens, EM-2; 72 h; leukemia; read-out: IC50 (Oncopanel, cell count). As for the experimental part:
as §1, §2, §3, §4, §5, §6, §7

For assay [8], the system named is HT. Particulars: Homo sapiens, 72 h, lymphoma, read-out: IC50 (Oncopanel, cell count). The method, then:
as §1, §2, §3, §4, §5, §6, §7

Assay [9] relates to L428. As to conditions: Homo sapiens, L-428; 72 h; lymphoma; read-out: IC50 (Oncopanel, cell count). As for the experimental part:
as §1, §2, §3, §4, §5, §6, §7

The test system of assay [10] is MDA-MB-468. Particulars: Homo sapiens, 72 h, breast cancer, read-out: IC50 (nmol/L) Oncopanel. As for the experimental part:
as §1, §2, §3, §4, §5, §6, §7

Assay [11] relates to MOLT16. Particulars: Homo sapiens, MOLT-16; 72 h; leukemia; read-out: IC50 (Oncopanel, cell count). As for the experimental part: as §1, §2, §3, §4, §5, §6, §7
Assay [12] deals with RAJI. As to conditions: Homo sapiens, 72 h, lymphoma, read-out: IC50 (Oncopanel, cell count). The method, then:
as §1, §2, §3, §4, §5, §6, §7

Assay [13] concerns RPMI8226. Particulars: Homo sapiens, RPMI-8226; 72 h; myeloma; read-out: IC50 (Oncopanel, cell count). The method, then:
as §1, §2, §3, §4, §5, §6, §7

The test system of assay [14] is ST486. As to conditions: Homo sapiens, 72 h, lymphoma, read-out: IC50 (Oncopanel, cell count). As for the experimental part: as §1, §2, §3, §4, §5, §6, §7

Turning to `CNc1nc(NCc2ncccn2)c2c(-c3ccc4ncccc4c3)c[nH]c2n1` [T-025, N ^2‐methyl‐N ^4‐[pyrimidin‐2‐ylmethyl]‐5‐[quinolin‐6‐yl]‐7H‐pyrrolo[2,3‐d]pyrimidine‐2,4‐diamine], the IC50 in assay [1] is 30 to 300 nM; in assay [2], 239 nmol/L; in assay [3] it was 45.9 nmol/L; in assay [4], 69.7 nM; in assay [5] it was 30.1 nmol/L; in assay [6], 52.5 nM. For the same compound, the IC50 amounted to 104 nM in [7]; 228 nM in assay [8]; 116 nM in assay [9]; 47.1 nmol/L in assay [10]; 20.6 nM in [11]; 84.7 nM in assay [12]. In addition, the IC50 turned out to be 99.3 nM in assay [13] and 57.1 nM in assay [14].
